These results are taken from patent US10870647B2, “Imidazopyridine derivative, method for preparing same, and pharmaceutical composition containing same as active ingredient for preventing or treating cancer” (DAEGU-GYEONGBUK MEDICAL INNOVATION FOUNDATION, priority 2016, dated 2020).

Holding throughout (experiment): Kinase selectivity, scanMAX Kinase assay panel (DiscoverX), % control at 1 uM
Holding throughout (format): binding

The target of test [1] is T1, scanMAX Kinase assay panel (Homo sapiens, UniProt P42336, C420R).
T1 construct: purchased DiscoverX
T1 sequence (P42336 whole entry C420R): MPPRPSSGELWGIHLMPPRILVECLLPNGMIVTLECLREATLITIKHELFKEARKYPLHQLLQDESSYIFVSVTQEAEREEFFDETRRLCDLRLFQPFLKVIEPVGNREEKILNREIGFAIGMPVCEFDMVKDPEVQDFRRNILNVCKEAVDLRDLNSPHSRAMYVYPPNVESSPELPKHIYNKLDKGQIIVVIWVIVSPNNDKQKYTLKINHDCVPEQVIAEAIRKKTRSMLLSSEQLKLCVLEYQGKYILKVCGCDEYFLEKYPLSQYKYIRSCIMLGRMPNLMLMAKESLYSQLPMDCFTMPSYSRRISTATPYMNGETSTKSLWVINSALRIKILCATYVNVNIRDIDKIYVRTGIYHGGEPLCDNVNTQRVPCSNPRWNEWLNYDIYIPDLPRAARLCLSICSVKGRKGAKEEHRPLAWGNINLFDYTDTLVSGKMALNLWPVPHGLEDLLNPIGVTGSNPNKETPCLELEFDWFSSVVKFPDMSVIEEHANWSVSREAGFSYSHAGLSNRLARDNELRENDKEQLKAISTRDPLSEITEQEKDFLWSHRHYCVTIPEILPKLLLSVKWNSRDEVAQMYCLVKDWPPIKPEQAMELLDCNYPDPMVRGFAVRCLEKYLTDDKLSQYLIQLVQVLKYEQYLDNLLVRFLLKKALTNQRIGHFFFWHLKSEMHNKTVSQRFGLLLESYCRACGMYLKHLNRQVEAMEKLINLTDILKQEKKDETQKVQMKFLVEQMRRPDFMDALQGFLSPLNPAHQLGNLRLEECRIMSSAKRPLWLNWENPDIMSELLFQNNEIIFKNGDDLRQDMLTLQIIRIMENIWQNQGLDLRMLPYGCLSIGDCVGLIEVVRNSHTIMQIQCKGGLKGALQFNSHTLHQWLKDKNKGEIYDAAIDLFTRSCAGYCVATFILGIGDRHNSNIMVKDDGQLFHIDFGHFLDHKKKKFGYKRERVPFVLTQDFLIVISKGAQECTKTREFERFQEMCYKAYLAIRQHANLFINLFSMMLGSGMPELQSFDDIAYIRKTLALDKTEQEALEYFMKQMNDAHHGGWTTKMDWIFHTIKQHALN
As to conditions: PIK3CA (C420R); 1 uM; read-out: Percent Control (%). Put shortly: (§1)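 Read-out is percent of control, derived from the signal with compound relative to positive and negative controls: (compound − positive)/(negative − positive) × 100. Each enzyme received test drug at 1 uM in DMSO, and values under 35% count as active.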

Test [2] addresses T2, scanMAX Kinase assay panel (Homo sapiens, UniProt P17948).
T2 construct: purchased DiscoverX
The note with it: FLT1; 1 uM; read-out: Percent Control (%). The gist of the method: as §1

Test [3] deals with T3, scanMAX Kinase assay panel (Homo sapiens, UniProt O00329).
T3 construct: purchased DiscoverX
T3 sequence (O00329 1-1044): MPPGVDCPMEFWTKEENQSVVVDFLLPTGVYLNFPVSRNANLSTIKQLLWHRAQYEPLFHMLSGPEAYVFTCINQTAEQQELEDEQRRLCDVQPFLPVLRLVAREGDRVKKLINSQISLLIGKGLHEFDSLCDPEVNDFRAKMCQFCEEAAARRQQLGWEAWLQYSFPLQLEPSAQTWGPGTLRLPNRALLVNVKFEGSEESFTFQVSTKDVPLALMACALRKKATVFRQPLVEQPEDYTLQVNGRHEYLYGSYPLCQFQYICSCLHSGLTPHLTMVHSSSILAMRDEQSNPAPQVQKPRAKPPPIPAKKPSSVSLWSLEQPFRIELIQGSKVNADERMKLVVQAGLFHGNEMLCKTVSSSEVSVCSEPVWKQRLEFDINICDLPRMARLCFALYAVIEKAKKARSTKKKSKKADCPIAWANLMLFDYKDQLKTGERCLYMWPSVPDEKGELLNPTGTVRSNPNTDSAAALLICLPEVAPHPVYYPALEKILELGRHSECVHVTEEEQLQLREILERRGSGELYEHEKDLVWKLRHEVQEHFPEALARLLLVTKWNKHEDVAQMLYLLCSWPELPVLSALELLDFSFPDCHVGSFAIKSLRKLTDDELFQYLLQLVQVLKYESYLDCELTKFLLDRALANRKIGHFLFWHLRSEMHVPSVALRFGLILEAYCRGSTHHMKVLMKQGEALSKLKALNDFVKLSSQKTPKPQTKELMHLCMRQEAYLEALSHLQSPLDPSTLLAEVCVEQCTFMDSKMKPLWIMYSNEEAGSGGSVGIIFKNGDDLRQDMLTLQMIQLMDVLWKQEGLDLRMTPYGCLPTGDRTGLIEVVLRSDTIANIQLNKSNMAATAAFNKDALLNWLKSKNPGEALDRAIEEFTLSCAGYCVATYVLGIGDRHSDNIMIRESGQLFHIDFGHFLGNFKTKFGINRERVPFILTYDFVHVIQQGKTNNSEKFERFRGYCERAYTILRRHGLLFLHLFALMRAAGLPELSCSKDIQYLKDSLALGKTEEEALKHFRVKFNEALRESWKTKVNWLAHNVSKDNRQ
The note with it: PIK3CD; 1 uM; read-out: Percent Control (%). Put shortly:
as §1

In test [4] the target is T4, scanMAX Kinase assay panel (Homo sapiens, UniProt Q9H422).
T4 construct: purchased DiscoverX
As to conditions: HIPK3; 1 uM; read-out: Percent Control (%). Put shortly:
as §1

Test [5] addresses T5, scanMAX Kinase assay panel (Homo sapiens, UniProt P04626).
T5 construct: purchased DiscoverX
As to conditions: ERBB2; 1 uM; read-out: Percent Control (%). Put shortly: as §1

For test [6], the target named is T6, scanMAX Kinase assay panel (Homo sapiens, UniProt Q14680).
T6 construct: purchased DiscoverX
The note with it: MELK; 1 uM; read-out: Percent Control (%). Put shortly:
as §1

Test [7] concerns the target T7, scanMAX Kinase assay panel (Homo sapiens, UniProt Q9BXA7).
T7 construct: purchased DiscoverX
T7 sequence (Q9BXA7 1-367): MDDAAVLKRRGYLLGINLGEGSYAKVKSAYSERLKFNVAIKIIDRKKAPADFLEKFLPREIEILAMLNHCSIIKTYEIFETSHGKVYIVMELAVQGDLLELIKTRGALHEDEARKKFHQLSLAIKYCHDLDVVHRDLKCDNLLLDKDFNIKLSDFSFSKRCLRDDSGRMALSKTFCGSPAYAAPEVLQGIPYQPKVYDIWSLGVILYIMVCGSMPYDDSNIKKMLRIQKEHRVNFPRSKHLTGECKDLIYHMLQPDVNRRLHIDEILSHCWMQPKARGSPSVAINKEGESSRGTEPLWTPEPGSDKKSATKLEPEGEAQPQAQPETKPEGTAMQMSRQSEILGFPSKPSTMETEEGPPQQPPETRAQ
As to conditions: TSSK1B; 1 uM; read-out: Percent Control (%). Put shortly:
as §1

Test [8] deals with T8, scanMAX Kinase assay panel (Homo sapiens, UniProt P10721).
T8 construct: purchased DiscoverX
T8 sequence (P10721 26-976): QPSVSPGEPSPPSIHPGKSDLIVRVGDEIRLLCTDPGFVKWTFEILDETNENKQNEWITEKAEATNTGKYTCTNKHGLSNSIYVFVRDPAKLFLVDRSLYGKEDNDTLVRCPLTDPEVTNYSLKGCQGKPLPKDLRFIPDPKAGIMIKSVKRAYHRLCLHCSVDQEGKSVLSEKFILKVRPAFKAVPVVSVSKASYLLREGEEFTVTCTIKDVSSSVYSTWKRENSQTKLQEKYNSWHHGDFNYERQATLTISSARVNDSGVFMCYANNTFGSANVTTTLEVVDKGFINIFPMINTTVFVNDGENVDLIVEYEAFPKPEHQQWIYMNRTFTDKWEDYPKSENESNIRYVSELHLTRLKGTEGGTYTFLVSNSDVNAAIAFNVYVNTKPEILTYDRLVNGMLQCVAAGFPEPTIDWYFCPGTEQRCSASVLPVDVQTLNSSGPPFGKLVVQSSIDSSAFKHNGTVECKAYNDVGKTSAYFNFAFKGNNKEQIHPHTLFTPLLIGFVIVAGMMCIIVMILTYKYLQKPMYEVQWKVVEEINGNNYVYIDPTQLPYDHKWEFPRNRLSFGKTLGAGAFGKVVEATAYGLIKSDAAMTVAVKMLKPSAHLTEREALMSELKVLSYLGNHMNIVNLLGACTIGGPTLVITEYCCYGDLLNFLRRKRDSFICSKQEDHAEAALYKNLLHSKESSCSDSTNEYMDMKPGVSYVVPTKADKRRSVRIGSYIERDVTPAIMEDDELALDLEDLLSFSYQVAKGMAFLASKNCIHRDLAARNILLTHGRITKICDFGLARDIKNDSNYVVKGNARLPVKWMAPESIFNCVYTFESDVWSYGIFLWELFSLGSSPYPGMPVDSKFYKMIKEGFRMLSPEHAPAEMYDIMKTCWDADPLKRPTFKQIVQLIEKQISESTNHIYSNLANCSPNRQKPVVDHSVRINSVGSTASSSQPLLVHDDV
As to conditions: 1 uM, read-out: Percent Control (%). Put shortly:
as §1

Read-outs that look alike come from different tables or passages of the source.

T5 sequence (P04626 23-1255): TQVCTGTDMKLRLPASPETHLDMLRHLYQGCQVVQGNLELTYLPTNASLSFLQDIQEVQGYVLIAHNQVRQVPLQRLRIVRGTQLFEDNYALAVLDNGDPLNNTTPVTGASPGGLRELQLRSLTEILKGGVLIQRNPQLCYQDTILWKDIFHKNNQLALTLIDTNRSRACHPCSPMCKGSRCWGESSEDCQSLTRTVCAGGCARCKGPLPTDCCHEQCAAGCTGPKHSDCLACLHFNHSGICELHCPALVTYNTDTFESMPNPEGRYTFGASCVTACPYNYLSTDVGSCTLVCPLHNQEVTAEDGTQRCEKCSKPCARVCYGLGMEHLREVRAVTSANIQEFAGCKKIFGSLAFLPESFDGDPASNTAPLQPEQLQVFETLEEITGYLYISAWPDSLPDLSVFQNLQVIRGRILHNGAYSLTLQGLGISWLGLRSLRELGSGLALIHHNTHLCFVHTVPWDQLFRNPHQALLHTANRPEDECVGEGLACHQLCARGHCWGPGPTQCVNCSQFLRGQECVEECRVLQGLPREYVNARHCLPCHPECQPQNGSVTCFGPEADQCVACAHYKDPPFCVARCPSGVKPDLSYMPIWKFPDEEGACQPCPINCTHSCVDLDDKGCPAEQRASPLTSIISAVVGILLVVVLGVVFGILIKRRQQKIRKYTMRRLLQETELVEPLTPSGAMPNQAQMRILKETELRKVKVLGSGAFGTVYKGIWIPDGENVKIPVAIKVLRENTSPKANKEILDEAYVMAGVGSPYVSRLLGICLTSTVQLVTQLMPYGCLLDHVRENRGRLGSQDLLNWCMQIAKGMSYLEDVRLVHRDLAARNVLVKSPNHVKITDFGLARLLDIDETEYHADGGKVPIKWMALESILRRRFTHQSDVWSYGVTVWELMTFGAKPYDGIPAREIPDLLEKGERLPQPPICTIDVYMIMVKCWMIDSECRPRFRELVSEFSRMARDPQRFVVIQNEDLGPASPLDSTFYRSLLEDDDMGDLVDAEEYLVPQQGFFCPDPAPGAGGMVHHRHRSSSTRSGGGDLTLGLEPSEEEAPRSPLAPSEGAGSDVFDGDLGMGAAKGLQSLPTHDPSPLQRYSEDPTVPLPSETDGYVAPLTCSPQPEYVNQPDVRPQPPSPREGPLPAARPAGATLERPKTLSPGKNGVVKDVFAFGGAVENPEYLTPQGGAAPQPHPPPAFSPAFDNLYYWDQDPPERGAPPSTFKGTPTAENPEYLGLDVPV
T2 sequence (P17948 27-1338): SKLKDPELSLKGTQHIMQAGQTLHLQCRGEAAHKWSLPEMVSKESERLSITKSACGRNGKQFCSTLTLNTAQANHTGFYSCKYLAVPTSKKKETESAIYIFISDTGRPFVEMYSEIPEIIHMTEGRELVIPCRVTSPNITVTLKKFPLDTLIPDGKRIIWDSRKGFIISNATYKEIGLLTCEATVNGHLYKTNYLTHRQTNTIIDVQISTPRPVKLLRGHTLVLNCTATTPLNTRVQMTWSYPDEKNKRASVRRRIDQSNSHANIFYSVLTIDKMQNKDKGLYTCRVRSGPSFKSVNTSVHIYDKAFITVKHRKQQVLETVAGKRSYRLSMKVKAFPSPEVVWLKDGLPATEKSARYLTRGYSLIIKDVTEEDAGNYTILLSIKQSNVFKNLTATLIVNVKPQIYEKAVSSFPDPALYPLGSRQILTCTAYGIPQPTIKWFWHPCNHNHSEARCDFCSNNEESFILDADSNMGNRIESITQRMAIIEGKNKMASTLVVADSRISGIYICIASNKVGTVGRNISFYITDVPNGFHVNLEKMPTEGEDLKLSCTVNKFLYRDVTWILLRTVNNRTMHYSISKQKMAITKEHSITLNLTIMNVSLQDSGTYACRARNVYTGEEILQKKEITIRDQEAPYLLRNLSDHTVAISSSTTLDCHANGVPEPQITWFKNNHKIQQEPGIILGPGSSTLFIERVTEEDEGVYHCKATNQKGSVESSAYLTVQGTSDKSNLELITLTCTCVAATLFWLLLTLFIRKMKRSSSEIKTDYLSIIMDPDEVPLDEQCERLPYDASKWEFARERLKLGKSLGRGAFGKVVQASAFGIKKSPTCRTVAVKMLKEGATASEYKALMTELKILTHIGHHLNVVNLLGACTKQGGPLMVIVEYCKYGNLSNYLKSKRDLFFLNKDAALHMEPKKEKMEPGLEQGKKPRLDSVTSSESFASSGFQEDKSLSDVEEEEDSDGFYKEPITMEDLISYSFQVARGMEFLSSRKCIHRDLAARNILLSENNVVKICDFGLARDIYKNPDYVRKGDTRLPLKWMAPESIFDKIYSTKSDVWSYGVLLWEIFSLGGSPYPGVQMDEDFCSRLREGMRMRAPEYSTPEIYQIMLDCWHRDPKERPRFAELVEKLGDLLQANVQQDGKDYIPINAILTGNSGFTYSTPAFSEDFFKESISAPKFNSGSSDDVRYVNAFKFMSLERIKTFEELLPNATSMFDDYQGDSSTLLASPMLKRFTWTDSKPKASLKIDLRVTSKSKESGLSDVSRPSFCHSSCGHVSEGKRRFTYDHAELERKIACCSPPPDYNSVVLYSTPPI

As for `Cc1ccc(C(=O)Nc2ccc(CN3CCN(C)CC3)c(C(F)(F)F)c2)cc1C#Cc1cnc2c(Nc3cnn(C)c3)cccn12` [Example 1, 4-methyl-3-((8-((1-methyl-1H-pyrazol-4-yl)amino)imidazo[1,2-a]pyridin-3-yl)ethynyl)-N-(4-((4-methylpiperazin-1-yl)methyl)-3-(trifluoromethyl)phenyl)benzamide], the remaining binding at 1 µM came to 97% in test [1]; 3% in test [2]; 89% in test [3]; 54% in test [4]; 1% in test [5]; 9% in test [6]. Besides, the remaining binding at 1 µM stood at 95% in test [7], 77% in test [8] (KIT-autoinhibited) and 0% in test [8] (KIT).
Take `Cc1ccc(NC(=O)C2(C(=O)Nc3ccc(F)cc3)CC2)cc1C#Cc1cnc2c(Nc3cnn(C(C)C)c3)cccn12` [Example 78]: the remaining binding at 1 µM in test [1] came out at 100%; in test [2], 84%; in test [3], 100%; in test [4], 100%; in test [5], 81%; in test [6], 91%. In addition, the remaining binding at 1 µM turned out to be 100% in test [7], 93% in test [8] (KIT-autoinhibited) and 0% in test [8] (KIT).
On to `Cc1cn(-c2cc(NC(=O)c3ccc(C)c(C#Cc4cnc5c(Nc6cnn(C)c6)cccn45)c3)cc(C(F)(F)F)c2)cn1` [Example 12, 4-methyl-N-(3-(4-methyl-1H-imidazol-1-yl)-5-(trifluoromethyl)phenyl)-3-((8-((1-methyl-1H-pyrazol-4-yl)amino)imidazo[1,2-a]pyridin-3-yl)ethynyl)benzamide], for which the remaining binding at 1 µM in test [1] was found to be 100%; in test [2], 16%; in test [3] it was 100%; in test [4] it was 84%; in test [5], 68%; in test [6], 98%. Besides, the remaining binding at 1 µM was 61% in test [7], 98% in test [8] (KIT-autoinhibited) and 1% in test [8] (KIT).
